Results on 2 compounds are retold here after patent publication US20060073188A1, “Fast-dissolving isotropic expanded microporous composition or structure for pharmaceutical, veterinary, dietetic, food or cosmetic use and method for obtaining same” (PIERRE FABRE MEDICAMENT, priority 1999, published 2006).

Molecules are shown by their SMILES.

A short description of the data set: physchem.

`CN1C(C(=O)Nc2ccccn2)=C(O)c2ccccc2S1(=O)=O` [piroxicam] came in with a solubility of less than 100 µg/mL.
Consider `O=c1[nH]c2ccccc2n1CCCN1CCC(n2c(=O)[nH]c3cc(Cl)ccc32)CC1` [domperidone], for which the solubility was less than 100 µg/mL.

As usually defined, the solubility is how much of the substance goes into solution per volume. Low readings indicate a poorly soluble substance, high ones a readily soluble substance.
